Reference: article PMC5844890 (Scientific Reports, 2018)
Read-outs that look alike come from different tables or passages of the source.

Experiments:
[1] = tested on: HMEC-1 cells; experiment: Anti-proliferative activity, HMEC-1 microvascular endothelial cells (Coulter counting); format: cell-based; settings: Homo sapiens, HMEC-1, 96 h; mean ± SD of three independent experiments; 4 days; read-out: Endothelial cells IC50 HMEC-1
Text: (§1) The anti-proliferative activity of the synthesized benzofurane derivatives was studied in three human cancer cell lines [breast carcinoma (MDA-MB-231), lymphoblastic leukemia (CEM) and cervical carcinoma (HeLa) cells] and one endothelial cell line [human microvascular endothelial cells (HMEC-1)].
The human microvascular endothelial cell line HMEC-1 was obtained at passage 12 from the Centers for Disease Control and Prevention (Atlanta, GA, USA) and used from passage 17 till 27. Human breast carcinoma (MDA-MB-231), human cervical carcinoma (HeLa) and human T-lymphoid (CEM) cells were obtained from ATCC (Middlesex, UK). Cell lines were maintained in culture for up to 3 months and grown in DMEM, supplemented with 10% FBS, 0.01 M Hepes and 1 mM sodium pyruvate. All cells were cultured in a humidified 5% CO2 incubator at 37 °C.
(§2) HMEC-1 cells were seeded in 48-well plates at 20,000 cells/well. After 24 h, 5-fold dilutions of the compounds were added. The cells were allowed to proliferate 4 days in the presence of the compounds, trypsinized, and counted by means of a Coulter counter (Analis, Belgium). HeLa and MDA-MB-231 cells were seeded in 48-well plates at 10,000 cells/well. After 24 h, different concentrations of the compounds were added. After 3 days of incubation, the cells were trypsinized and counted in a Coulter counter. Suspension cells (human lymphoid Cem cells) were seeded in 96-well plates at 60,000 cells/well in the presence of different concentrations of the compounds, allowed to proliferate for 96 h, and counted in a Coulter counter. The 50% inhibitory concentration (IC50) was defined as the compound concentration required to reduce cell proliferation by 50%.

[2] = tested on: MDA-MB-231 cells; experiment: Cell cycle analysis (propidium iodide, flow cytometry); format: cell-based, human; settings: 24 h treatment
Protocol: Tubulin-binding agents interfere with mitotic spindle formation during cell division. […] Thus, we investigated whether 27 and 28 affect the progression of human breast cancer MDA-MB-231 cells through the cell cycle. […] In contrast, compounds 27 and 28 arrested the cell cycle in the M phase (mitosis) at concentrations as low as 0.03 and 0.1 μM (for compound 27 and 28 respectively).
Figure 6 Mechanism of action of the benzofurane derivatives. (A) Inhibition of cell cycle progression. MDA-MB-231 cells were treated with DMSO (control) or compounds 8, 27 or 28 for 24 h. Next, the cells were harvested, stained with propidium iodide (PI), and cell cycle distribution was evaluated by flow cytometry. Percentages of cells in the different phases of the cell cycle are indicated. (B) Caspase-3 activity. MDA-MB-231 cells were seeded in 48-well plates at 40,000 cells/cm². After 24 h, different concentrations of compounds 8, 27 or 28 and 2 µM of the caspase-3 substrate DEVD-NucView488 were added. After 16 h, the cells were incubated with 2 µg/ml Hoechst 33342 to stain the nucleus, and imaged. (C) Disruption of the vascular network. HMEC-1 cells were cultured on matrigel for 3 h to allow the formation of tube-like structures. Next, different concentrations of compounds were added. Upper panel: After 90 min, pictures were taken and the tubular network was scored (3: intact network, 0: network completely destroyed). Bars show average ± SEM (n = 4). Lower panel: Microscopic pictures of the tubular network 3 h after addition of compound.
MDA-MB-231 cells were seeded in 6-well plates at 125,000 cells/well in DMEM with 10% FBS. After 24 h, the cells were exposed to different concentrations of the compounds. After 24 h, the DNA of the cells was stained with propidium iodide using the CycleTEST PLUS DNA Reagent Kit (BD Biosciences, San Jose, CA). The DNA content of the stained cells was assessed by flow cytometry on a FACSCalibur flow cytometer and analyzed with CellQuest software (BD Biosciences) within 3 h after staining. Cell debris and clumps were excluded from the analysis by appropriate dot plot gating. Percentages of sub-G1, G1, S, and G2/M cells were estimated using appropriate region markers.

[3] = tested on: MDA-MB-231, CEM, HeLa and HMEC-1 cells; experiment: Anti-proliferative activity, summary over tumor and endothelial cell lines; format: cell-based; settings: Homo sapiens
Protocol: as §1, §2

[4] = tested on: A2780 cells; experiment: Anti-proliferative activity, A2780 ovarian carcinoma cells; format: cell-based, human; settings: Homo sapiens, A2780; mean ± standard error of three independent experiments
Text: One of the most relevant causes of tumor resistance to chemotherapy is the overexpression of membrane pumps which remove the chemotherapeutic agents from the treated cells.

[5] = Endothelial cell, range stated in the conclusions, read-out: IC50 (antiproliferative activity against tumor and endothelial cells)
[6] = range over tumor and endothelial cell lines, read-out: IC50 values ranging (antiproliferative, all cell lines of Table 1)

COCc1cc2cccc(NC(C)=C3C(=O)CC(c4ccccc4)CC3=O)c2o1 (stereo not drawn) [Compound 27, 2-(1-((2-(Methoxymethyl)benzofuran-7-yl)amino)ethylidene)-5-phenylcyclohexane-1,3-dione]
IC50 [1]: 16 ± 2 nM
cells in the sub-G1 phase (indicative of apoptosis) [2]: caused an increase of cells in the sub-G1 phase
lowest concentration arresting the cell cycle in the M phase [2]: 0.03 µM
IC50 [3, 5]: 8 to 31 nM
IC50 [3, 6]: 9 to 51 nM
IC50 [4]: 23 ± 2 nM

CC(Nc1cccc2cc(COCCCO)oc12)=C1C(=O)CC(c2ccccc2)CC1=O (stereo not drawn) [Compound 28, 2-(1-((2-((3-Hydroxypropoxy)methyl)benzofuran-7-yl)amino)ethylidene)-5-phenylcyclohexane-1,3-dione]
IC50 [1]: 38 ± 3 nM
cells in the sub-G1 phase (indicative of apoptosis) [2]: caused an increase of cells in the sub-G1 phase
lowest concentration arresting the cell cycle in the M phase [2]: 0.1 µM
IC50 [3, 5]: 8 to 31 nM
IC50 [3, 6]: 9 to 51 nM
IC50 [4]: 38 ± 7 nM
